For 21 molecules, EC50 results are on record in patent US11951094B2, “TLR2 modulator compounds, pharmaceutical compositions and uses thereof” (Axial Therapeutics, Inc., priority 2020, dated 2024).

By EC50 is commonly meant the concentration needed to bring the measured effect to its halfway point. High values mean lower potency in that assay, low ones higher potency in that assay.

Each structure is given as a SMILES string. Counter-ions that a name gives are not always drawn.

Sequence of TLR2 (O60603 21-784): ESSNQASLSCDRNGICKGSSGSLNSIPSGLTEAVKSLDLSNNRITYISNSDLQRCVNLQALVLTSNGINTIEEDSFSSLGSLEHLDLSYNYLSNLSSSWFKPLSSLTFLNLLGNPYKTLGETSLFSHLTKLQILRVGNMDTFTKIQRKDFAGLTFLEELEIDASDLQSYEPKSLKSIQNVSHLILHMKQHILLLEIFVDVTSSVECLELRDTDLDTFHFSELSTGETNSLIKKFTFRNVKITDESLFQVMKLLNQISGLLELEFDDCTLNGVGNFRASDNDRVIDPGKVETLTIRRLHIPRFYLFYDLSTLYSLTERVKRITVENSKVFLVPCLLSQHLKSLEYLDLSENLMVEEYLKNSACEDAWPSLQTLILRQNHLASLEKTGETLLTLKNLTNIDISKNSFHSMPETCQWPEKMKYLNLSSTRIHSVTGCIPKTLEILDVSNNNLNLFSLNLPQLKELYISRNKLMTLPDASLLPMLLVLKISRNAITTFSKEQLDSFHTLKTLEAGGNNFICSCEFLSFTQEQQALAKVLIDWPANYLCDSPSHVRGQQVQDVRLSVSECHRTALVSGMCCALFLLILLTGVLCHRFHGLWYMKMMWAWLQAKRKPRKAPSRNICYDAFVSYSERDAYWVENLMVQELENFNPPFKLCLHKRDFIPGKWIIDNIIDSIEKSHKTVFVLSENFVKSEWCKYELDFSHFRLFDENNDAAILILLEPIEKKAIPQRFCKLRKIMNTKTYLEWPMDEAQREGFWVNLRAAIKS

One assay has as its target TLR2 (Homo sapiens, UniProt O60603). Nature of the assay: TLR2 agonist screening assay, HEK-Blue TLR2 reporter cell line (NF-kB-driven SEAP, absorbance at 600 nm). The following applies: HEK-Blue TLR2 reporter cells, agonist mode; average of all runs (Table 3). In kind it is cell-based. More on the design: host or cells: HEK-293 (HEK-Blue TLR2 reporter cell line). Put shortly:
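EC50 values come from dilution series of agonist on TLR2-transfected HEK-293 reporter cells carrying an NF-kB-SEAP construct. Cells sat overnight with compound in substrate-containing Detection medium at 1% DMSO, and secreted phosphatase activity was quantified as absorbance at 600 nm.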
`CCCCCCCCCCCCCCNC(=O)[C@@H]1CN(C(=O)c2ccc(C(=O)N3C[C@@H](C(=O)N[C@H]4C[C@@H]4c4ccccc4)[C@H](C(=O)N[C@H]4C[C@@H]4c4ccccc4)C3)cc2)CCN1C` [Compound 069, (3S,4S)-1-(4-((S)-4-methyl-3-(tetradecylcarbamoyl)piperazine-1-carbonyl)benzoyl)-N3,N4-bis ((1S,2R)-2-phenylcyclopropyl) pyrrolidine-3,4-dicarboxamide formate]: the 50% effective concentration (EC50) lay in the range of 351 to 1000 nM.
The same measure, in the same setting: next, `CCCCCCNC(=O)C1CN(C(=O)c2ccc(C(=O)N3C[C@@H](C(=O)N[C@H]4C[C@@H]4c4ccccc4)[C@H](C(=O)N[C@H]4C[C@@H]4c4ccccc4)C3)cc2)CCN1C(=O)CCc1ccc(F)cc1` (stereo partly drawn) [Compound 041, (3S,4S)-1-(4-(4-(3-(4-fluorophenyl)propanoyl)-3-(hexylcarbamoyl)piperazine-1-carbonyl)benzoyl)-N3,N4-bis((1S,2R)-2-phenylcyclopropyl)pyrrolidine-3,4-dicarboxamide]: 351 to 1000 nM; `CCCCCCCCCCCC(=O)N1CCN(C(=O)c2ccc(C(=O)N3C[C@@H](C(=O)N[C@H]4C[C@@H]4c4ccccc4)[C@H](C(=O)N[C@H]4C[C@@H]4c4ccccc4)C3)cc2)CC1C(=O)NCCCCCC` (stereo partly drawn) [Compound 057, (3S,4S)-1-(4-(4-dodecanoyl-3-(hexylcarbamoyl)piperazine-1-carbonyl)benzoyl)-N3,N4-bis((1S,2R)-2-phenylcyclopropyl)pyrrolidine-3,4-dicarboxamide]: 51 to 350 nM; `CCCCCCNC(=O)[C@@H]1CN(C(=O)c2ccc(C(=O)N3C[C@@H](C(=O)N[C@H]4C[C@@H]4c4ccccc4)[C@H](C(=O)N[C@H]4C[C@@H]4c4ccccc4)C3)cc2)C[C@H]1O` (relative stereo) [Compound 033, (3S,4S)-1-(4-((3R*,4S*)-3-(hexylcarbamoyl)-4-hydroxypyrrolidine-1-carbonyl)benzoyl)-N3,N4-bis((1S,2R)-2-phenylcyclopropyl)pyrrolidine-3,4-dicarboxamide]: 51 to 350 nM.

Staying with this assay, now noted: HEK-Blue TLR2 reporter cells, agonist mode; average of all runs (Table 4).
With `CCCCCCCN[C@H]1CN(C(=O)c2ccc(C(=O)N3C[C@@H](C(=O)N[C@H]4C[C@@H]4c4ccccc4)[C@H](C(=O)N[C@H]4C[C@@H]4c4ccccc4)C3)cc2)C[C@@H]1OCCCCCCC` [Compound 089, (3S,4S)-1-(4-((3S,4S)-3-(heptylamino)-4-(heptyloxy)pyrrolidine-1-carbonyl)benzoyl)-N3,N4-bis((1S,2R)-2-phenylcyclopropyl)pyrrolidine-3,4-dicarboxamide], the concentration giving a half-maximal response (EC50) was greater than 1000 nM.
On the same count and under the same terms, next, `O=C(N[C@H]1C[C@@H]1c1ccccc1)[C@@H]1CN(C(=O)C23CCC(C(=O)N4C[C@@H](C(=O)N[C@H]5C[C@@H]5c5ccccc5)[C@H](C(=O)N[C@H]5C[C@@H]5c5ccccc5)C4)(C2)C3)C[C@H]1C(=O)N[C@H]1C[C@@H]1c1ccccc1` [Compound 144, (3S,3'S,4S,4'S)-1,1′-(bicyclo[2.1.1]hexane-1,4-dicarbonyl)bis(N3,N4-bis((1S,2R)-2-phenylcyclopropyl)pyrrolidine-3,4-dicarboxamide)]: 351 to 1000 nM; `CCCCCCCC(=O)N1CCCN(S(=O)(=O)c2cccc(C(=O)N3C[C@@H](C(=O)N[C@H]4C[C@@H]4c4ccccc4)[C@H](C(=O)N[C@H]4C[C@@H]4c4ccccc4)C3)c2)C[C@@H]1C(=O)NCCCCCC` (single isomer, unassigned) [Compound 201]: 351 to 1000 nM; `CCCCCCNC(=O)[C@H](CNC(=O)c1ccc(C(=O)N2C[C@@H](C(=O)N[C@H]3C[C@@H]3c3ccccc3)[C@H](C(=O)N[C@H]3C[C@@H]3c3ccccc3)C2)cc1)NC(=O)CCCC` [Compound 130, (3S,4S)-1-(4-(((S)-3-(hexylamino)-3-oxo-2-pentanamidopropyl)carbamoyl)benzoyl)-N3,N4-bis((1S,2R)-2-phenylcyclopropyl)pyrrolidine-3,4-dicarboxamide]: 351 to 1000 nM.
For `CCCCCCCCCCCCCCC(=O)N[C@H]1CCN(Cc2ccc(C(=O)N3C[C@@H](C(=O)N[C@H]4C[C@@H]4c4ccccc4)[C@H](C(=O)N[C@H]4C[C@@H]4c4ccccc4)C3)cc2)C1=O` [Compound 133, (3S,4S)-1-(4-(((S)-2-oxo-3-pentadecanamidopyrrolidin-1-yl)methyl)benzoyl)-N3,N4-bis((1S,2R)-2-phenylcyclopropyl)pyrrolidine-3,4-dicarboxamide], the half-maximal effective concentration (EC50) was greater than 1000 nM.
`CCCCCCCCCCCCCCNC(=O)C1CCN(Cc2ccc(C(=O)N3C[C@@H](C(=O)N[C@H]4C[C@@H]4c4ccccc4)[C@H](C(=O)N[C@H]4C[C@@H]4c4ccccc4)C3)cc2)C1=O` (stereo partly drawn) [Compound 142, (3S,4S)-1-(4-((2-oxo-3-(tetradecylcarbamoyl)pyrrolidin-1-yl)methyl)benzoyl)-N3,N4-bis((1S,2R)-2-phenylcyclopropyl)pyrrolidine-3,4-dicarboxamide]: the concentration for a half-maximal effect (EC50) was greater than 1000 nM.
`CCCCCCCCCCCCCNC(=O)N[C@H]1CN(C(=O)Nc2ccc(C(=O)N3C[C@@H](C(=O)N[C@H]4C[C@@H]4c4ccccc4)[C@H](C(=O)N[C@H]4C[C@@H]4c4ccccc4)C3)cc2)C[C@@H]1OC` [Compound 238, (3S,4S)-1-(4-((3S,4S)-3-methoxy-4-(3-tridecylureido)pyrrolidine-1-carboxamido)benzoyl)-N3,N4-bis((1S,2R)-2-phenylcyclopropyl)pyrrolidine-3,4-dicarboxamide] returned a concentration for a half-maximal effect (EC50) of 351 to 1000 nM.
Consider `CCCCCCNC(=O)[C@H](CNC(=O)c1ccc(C(=O)N2C[C@@H](C(=O)N[C@H]3C[C@@H]3c3ccccc3)[C@H](C(=O)N[C@H]3C[C@@H]3c3ccccc3)C2)cc1)NC(=O)OCCCCCC` [Compound 226, hexyl ((S)-3-(4-((3S,4S)-3,4-bis(((1S,2R)-2-phenylcyclopropyl)carbamoyl)pyrrolidine-1-carbonyl)benzamido)-1-(hexylamino)-1-oxopropan-2-yl)carbamate], for which the EC50 was greater than 1000 nM.
On the same count and under the same terms, next, `CCCCCCCC(=O)N1CCCN(C(=O)c2ccc(C(=O)N3C[C@@H](C(=O)N[C@H]4C[C@@H]4c4ccccc4)[C@H](C(=O)N[C@H]4C[C@@H]4c4ccccc4)C3)cc2)C[C@@H]1C(=O)NCCCCCC` (single isomer, unassigned) [Compound 146]: 351 to 1000 nM.
Same read-out and setting: next, `CCCCCCCCCCCCNC(=O)N[C@H]1CN(C(c2ccc(C(=O)N3C[C@@H](C(=O)N[C@H]4C[C@@H]4c4ccccc4)[C@H](C(=O)N[C@H]4C[C@@H]4c4ccccc4)C3)cc2)C(F)(F)F)C[C@@H]1OC` (single isomer, unassigned) [Compound 233, (3S,4S)-1-(4-((S*)-1-((3S,4S)-3-(3-dodecylureido)-4-methoxypyrrolidin-1-yl)-2,2,2-trifluoroethyl)benzoyl)-N3,N4-bis((1S,2R)-2-phenylcyclopropyl)pyrrolidine-3,4-dicarboxamide]: 0.1 to 50 nM.
The same measure, in the same setting: next, `CCCCCCCCCCCCCCNC(=O)[C@@H]1CN(C(=O)c2ccc(C(=O)N3C[C@@H](C(=O)N[C@H]4C[C@@H]4c4ccccc4)[C@H](C(=O)N[C@H]4C[C@@H]4c4ccccc4)C3)cc2)C[C@@H]1OC` (single isomer, unassigned) [Compound 107, (3S,4S)-1-(4-((3R*,4R*)-3-methoxy-4-(tetradecylcarbamoyl)pyrrolidine-1-carbonyl)benzoyl)-N3,N4-bis((1S,2R)-2-phenylcyclopropyl)pyrrolidine-3,4-dicarboxamide]: 351 to 1000 nM.
In turn, `CCCCCCN1C(=O)[C@H](CCCCC)NC(=O)[C@@H]1CNC(=O)c1ccc(C(=O)N2C[C@@H](C(=O)N[C@H]3C[C@@H]3c3ccccc3)[C@H](C(=O)N[C@H]3C[C@@H]3c3ccccc3)C2)cc1` [Compound 159] yielded a half-maximal effective concentration (EC50) of 351 to 1000 nM.
Still for that read-out and setting: next, `CCCCCCCCCCCCCNC(=O)N[C@H]1CN(c2nc3cc(C(=O)N4C[C@@H](C(=O)N[C@H]5C[C@@H]5c5ccccc5)[C@H](C(=O)N[C@H]5C[C@@H]5c5ccccc5)C4)ccc3o2)C[C@@H]1OC` [Compound 245, (3S,4S)-1-(2-((3S,4S)-3-methoxy-4-(3-tridecylureido)pyrrolidin-1-yl)benzo[d]oxazole-5-carbonyl)-N3,N4-bis((1S,2R)-2-phenylcyclopropyl)pyrrolidine-3,4-dicarboxamide]: greater than 1000 nM; `CCCCCCNC(=O)[C@H](CNC(=O)c1ccc(C(=O)N2C[C@@H](C(=O)N[C@H]3C[C@@H]3c3ccccc3)[C@H](C(=O)N[C@H]3C[C@@H]3c3ccccc3)C2)cc1)NC(=O)NCCCCC` [Compound 137, (3S,4S)-1-(4-(((S)-3-(hexylamino)-3-oxo-2-(3-pentylureido)propyl)carbamoyl)benzoyl)-N3,N4-bis((1S,2R)-2-phenylcyclopropyl)pyrrolidine-3,4-dicarboxamide]: 51 to 350 nM.
`CCCCCCCO[C@@H]1CN(C(=O)c2ccc(C(=O)N3C[C@@H](C(=O)N[C@H]4C[C@@H]4c4ccccc4)[C@H](C(=O)N[C@H]4C[C@@H]4c4ccccc4)C3)cc2)C[C@H]1C(=O)NCCCCCC` (single isomer, unassigned) [Compound 114, (3S,4S)-1-(4-((3S*,4R*)-3-(heptyloxy)-4-(hexylcarbamoyl)pyrrolidine-1-carbonyl)benzoyl)-N3,N4-bis((1S,2R)-2-phenylcyclopropyl)pyrrolidine-3,4-dicarboxamide] displayed an EC50 of 51 to 350 nM.
`CCCCCCCO[C@H]1CN(C(=O)c2ccc(C(=O)N3C[C@@H](C(=O)N[C@H]4C[C@@H]4c4ccccc4)[C@H](C(=O)N[C@H]4C[C@@H]4c4ccccc4)C3)cc2)C[C@@H]1NC(=O)NCCCCC` [Compound 156, (3S,4S)-1-(4-((3S,4S)-3-(heptyloxy)-4-(3-pentylureido)pyrrolidine-1-carbonyl)benzoyl)-N3,N4-bis((1S,2R)-2-phenylcyclopropyl)pyrrolidine-3,4-dicarboxamide] returned an EC50 of 51 to 350 nM.
Molecule `CCCCCCCCCCCCCCS(=O)(=O)N[C@@H]1CCN(C(=O)c2ccc(C(=O)N3C[C@@H](C(=O)N[C@H]4C[C@@H]4c4ccccc4)[C@H](C(=O)N[C@H]4C[C@@H]4c4ccccc4)C3)cc2)C1` [Compound 083, (3S,4S)—N3,N4-bis((1S,2R)-2-phenylcyclopropyl)-1-(4-((R)-3-(tetradecylsulfonamido)pyrrolidine-1-carbonyl)benzoyl)pyrrolidine-3,4-dicarboxamide] returned an EC50 greater than 1000 nM.
